In series [1] the test system is Gli36EGFR cells. On the procedure: Gli36EGFR cells were plated at approximately 10% confluency. Cells were infected the next day (MOI=5) with either one of three amplicons: EZ-TFR (FIG. 12), which was a control having a transferrin receptor gene, but lacking a p450 gene; EZ-p450 (FIG. 11), which was a second control with a p450 gene but no transferrin receptor gene; or PETZ (FIG. 8), which includes both the p450 and transferrin receptor genes. Following a 24 hour incubation with the viral amplicons, cyclophosphamide (CPA) was added in varying concentrations as indicated in the graph of FIG. 13. CPA is a chemotherapeutic compound that is metabolized by the expression product of the p450 gene (cyp2B1 in the rat). Cleavage of CPA yields an active metabolite, which is toxic to the cancer cells. Cell number was measured 72 hours later using a Coulter Counter. The data are presented in the graph in FIG. 13 as a percentage of control, where control cells are virally infected cells in the absence of CPA.

The subject of series [2] is ETR+ and ETR− tumors. Description: Biodistribution of labeled reporter complex in excised ETR+ and ETR− tumors. It counts as in vivo, nude mice. How it is done: A similar 4-fold difference was also observed when In labeled Tf was injected into these animals. The same assay can be used to analyze the biodistribution of other new reporter complexes.
First, rat 9L gliosarcoma cells (Brain Tumor Research Center, San Francisco, Calif.) were grown in Dulbecco's modified Eagle's medium (DMEM, Cellgro, Mediatech, Washington, D.C.) containing 10% fetal bovine serum (FBS, Cellgro).
Then, ETR− and ETR+ tumors were grown in nude mice by injecting […] cells of either cell line into the left and right flanks of animals (n=12). Each animal was implanted with both tumors in each flank so that it could serve as its own control. Animals were used for histology, MR, and/or biodistribution studies 10 to 14 days after tumor inoculation. The growth characteristics of the tumors were similar and by day 12 all animals had developed tumors 200-400 mg in size.

The subject of the next series is 9L3.9 cells. Description: In vitro MR imaging of 9L3.9 cell pellets incubated with reporter complexes (FIG. 7). It counts as cell-based, rat. As to conditions: spin echo MR imaging. How it is done:
Concentration labels in FIG. 7 refer to the amount of iron (reporter complex) added to the sample.
Incubations of the reporter complexes with the cells were carried out at 37° C. The cells were washed and pelleted, and pellets were imaged in microfuge test tubes at room temperature as follows: SE (Spin Echo): TR 3000 ms, multi-echo with TE 25, 50, 75, 100 ms. Slice thickness was 1.9 mm, field of view 8 cm, matrix 256×256, 2 NEX, scan time 26:12 minutes. As shown at the top row in the figure, the Tf-SPDP-CLIO contrast agent provided a change in measured signal at far lower concentrations of the reporter complex.

Series [3] concerns ETR+ and ETR− tumors. Description: In vivo MR imaging of mice with ETR+ and ETR− tumors after intravenous Tf-MION. Details: species or system nude mice. To be noted: then tumoral signal intensity returned to baseline. How it is done:
MR imaging was performed in live animals using a 1.5 T superconducting magnet (Signa 5.0; GE Medical Systems, Milwaukee, Wis.) using a 5-inch surface coil. […] Slice thickness was 3 mm. The field of view (FOV) was 10 cm^2, using a 256×256 imaging matrix and 2-4 acquisition averages. Signal intensity (SI) measurements were obtained in regions of interest (ROI) from tumor and background. To display MION-Tf induced changes, R2 maps of tumors calculated from spin echo images were superimposed on anatomic maps (T1 weighted images). Semiquantitation was done by calibrating R2 maps to known concentrations of radiolabeled superparagmagnetic probes.

The subject of a further series is Gli36#6. As to the kind of experiment: In vitro MR imaging of Gli36#6 cells infected with PETZ amplicon and incubated with Tf-MION (FIG. 10A). It counts as cell-based. As to conditions: 10 μg Tf-MION. On the procedure:
In this figure, concentration labels refer to the amount of iron molecules added to the sample. […] Following infection, the cells were allowed to recover and were washed, pelleted, and imaged at room temperature as follows: SE (Spin Echo): TR 3000 ms, multiecho with TE 25, 50, 75, 100ms. Slice thickness 1.9 mm, field of view 8 cm, matrix 256×256, 2 NEX, scan time 26:12 minutes.

Series [4] deals with Gli36EGFR cells. Description: In vitro MR imaging of Gli36EGFR cells infected with PETZ amplicon and labeled with Tf-SPDP-CLIO (FIG. 10B). As to conditions: MOI 20 or 4; 2 hours at 37° C.; especially at MOI of 20. It counts as cell-based. How it is done:
In another similar experiment, in vitro MR imaging was used to analyze viral transfer of the transferrin receptor and labeling with Tf-SPDP-CLIO. Gli36EGFR cells were uninfected or infected with an HSV-based amplicon (PETZ) driving expression of an altered form of the transferrin receptor (Multiplicity of Infection (MOI) of 20 or 4). After 24 hours, the cells were incubated with the indicated concentrations of Tf-SPDP-CLIO for 2 hours at 37° C. Following incubation, cells were harvested, washed, and pelleted for imaging at room temperature. As a control for non-specific uptake of unconjugated CLIO, infected and uninfected cells were also incubated in a similar fashion with 50 μg of CLIO alone. Concentration numbers along the top of the figure refer to the amount of iron added to the sample in the form of Tf-SPDP-CLIO. The ratio of Tf conjugated to CLIO for Tf-SPDP-CLIO was 4:1. […] The MR imaging conditions were as follows: SE (Spin Echo); TR 3000 ms, multiecho with TE 25, 50, 75, 100 ms. Slice thickness 1.9 mm, field of view 8 cm, matrix 256×256, 2 NEX, scan time 26:12 minutes.

Series [5] has as its system Gli36EGFR tumors infected with PETZ. As to the kind of experiment: In vivo MR imaging of gene transfer in bilateral Gli36EGFR brain tumors (FIG. 9). Also on record: species or system nude mice. As to conditions: 24 hours after tail-vein injection, 1 mg/kg; 3-D gradient echo. The source says:
In another example of imaging of in vivo gene transfer, Gli36EGFR cells were implanted into nude mice 8 days prior to imaging to generate bilateral frontal tumors. On day 6 after implantation, tumors on the right were infected with the HSV-based amplicon PETZ (FIG. 8), which drives expression of an altered form of the TfR. Forty-eight hours after virus administration animals were imaged without contrast agent (T1-weighted pre-contrast scan; FIG. 9A) and then injected with Tf-SPDP-CLIO.
All contrast agents were injected by tail-vein administration (1 mg/kg Tf-SPDP-CLIO). Scans: (9A) T1 SE 300/16, FOV 8 cm, 256×256, 1.9 thk/0.2 spc; (9B) T1 SE [Omniscan], and (9C) T2 3D GR 38/20/5°, FOV 10 cm, 256×256, 0.5 thk/0.0 spc. [Tf-SPDP-CLIO.

On to `O=P1(N(CCCl)CCCl)NCCCO1` (stereo not drawn) [CPA, cyclophosphamide], for which the “cells alive, percent of control, no amplicon” value with Gli36EGFR cells [1] (10^3 μM CPA, 72 hours) is “about 80%”. For the same compound, in the series on Gli36EGFR cells [1] (10^3 μM CPA, 72 hours, MOI=5), the “cells alive, percent of control, EZ-TFR amplicon” value is “about 80%” and the “cells alive, percent of control, PETZ amplicon” value is recorded as “less than 10%”. Further, the “CPA concentration from which cell killing is significantly increased” value in the series with Gli36EGFR cells [1] (PETZ and EZ-p450 amplicons) is 10^1 μM.
As to “In labeled Tf: transferrin labeled with In (radioisotope) [reference compound]”, the “difference in tumor accumulation, ETR+ vs ETR− tumors” value in the series on ETR+ and ETR− tumors [2] (ETR+ vs ETR− tumors) is on record as roughly 4 fold.
As for “Tf-CLIO: holo-Tf conjugated to cross-linked iron oxide nanoparticles (CLIO) using the periodate method”, in the series with 9L3.9 cells, the “contrast compared with the other reporter complexes” value was “better than the Tf-MION, but not as good as the Tf-SPDP-CLIO”.
For the compound “Tf-MION: human holo-transferrin covalently conjugated to dextran coated monocrystalline iron oxide nanoparticles by the periodate method”, the “mean accumulation in ETR+ tumors” value in the series on ETR+ and ETR− tumors [2] (24 hours after IV administration) stood at 3.2 % ID/g. For the same compound, the “mean accumulation in ETR− tumors” value in the series with ETR+ and ETR− tumors [2] (24 hours after IV administration, same animal) amounted to 0.8 % ID/g. The “persistence of MR signal intensity differences of tumors” value with ETR+ and ETR− tumors [3] is “approximately 7 days”. For the same compound, the “change of MR signal of cell pellet due to TfR expression after PETZ infection” value in the series on Gli36#6 is “dramatically altered the MR signal”.
Consider “Tf-SPDP-CLIO: holo-Tf conjugated to CLIO using the crosslinking agent N-succinimidyl 3-(2-pyridyldithio) propionate (SPDP)”, for which, in the series on Gli36EGFR cells [4], the “change in MRI following infection with amplicons expressing the altered transferrin receptor” value is given as “dramatic change in MRI at lower concentrations of iron”. Besides, the “appearance of PETZ-infected tumor in MR image” value in series [5] was “dark mass”.

(Values after patent US6511967B1, “Use of an internalizing transferrin receptor to image transgene expression” (The General Hospital Corporation, priority 1999, dated 2003).)
